Laboratory results from patent US20090018194A1, “Use of antimicrobial agents derived from alliaceous plants for the prevention and control of crop diseases, post-harvest rot and as environmental disinifectant products” (DMC Research Center, S.L., priority 2007, published 2009).

How the values were obtained:
[1] = system: Bacillus subtilis ATCC 6633; test: agar diffusion test with impregnated cellulose discs; type: cell-based; details: incl. 6 mm disc
[2] = system: Enteroccus faecalis ATCC 29212; test: as above; type: cell-based; details: incl. 6 mm disc
[3] = system: Listeria innocua CECT 4030; test: as above; type: cell-based; details: incl. 6 mm disc
[4] = system: Salmonella typhimurium ATCC 13311; test: as above; type: cell-based; details: incl. 6 mm disc
Leveillula taurica = test: control of powdery mildew in peppers grown in greenhouses; type: in vivo; details: doses of 1000 and 2000 ppm; peppers in greenhouse; reference Ciproconazol/Triadimenol
Excerpt: Some of these tests were especially significant, such as the result against powdery mildew in peppers grown in greenhouses in Almeria. The relevance of the data obtained is based on the scarcity of effective and non-synthetic systems that control this disease (caused by Leveillula taurica).
In the case of this test, spray guns were used, via the greenhouse irrigation system, to apply solutions of 1000 ppm and 2000 ppm of PTS and PTSO, with a nutrient broth volume of 20, 30, 40 l/parcel, depending on the application. These solutions were distributed in parcels of 4 rows, located in the zone of the greenhouse with a greater incidence of powdery mildew, while a reference product was applied in the rest of the warehouse: Ciproconazol (Caddy 10 WG at 10 gr/100 l) for the first and second application, Triadimenol (Bayfidan 25 EC at 25 ml/100 l) for the third application and Ciproconazol/Triadimenol for the final application.

Fusarium spp. [5] = test: field tests on affected asparagus, Fusarium spp. in the soil; type: in vivo; details: for % Reduction / % elimination: soil, 60 days after application, compared to untreated control
Protocol: (§1) The treatment doses used were 250, 500 and 1000 ppm of both active principles (PT and PTSO), and the initial incidence of the pathogen was compared with its presence 60 days after its application.
(§2) To analyze the growth of the crops infected by Fusarium spp. after the treatments, root and soil samples were taken and tests were performed in the laboratory to investigate the incidence of the pathogen in the roots and soil. The cultivation media used were potato dextrose agar and rose bengal agar (to prevent the invasive character of the Mucoralean fungi).
(§3) The soil analysis was conducted by sequential dilutions of the soils in physiological serum with a subsequent sowing in the above mentioned media. The analysis of the roots was performed after dissection of the infected tissues, which were deposited in triplicate on filter paper located above both media, and their evolution over time was studied.
(§4) The data are expressed as a percentage of elimination and reduction as a function of the treatment dose compared to the untreated control samples.

Fusarium spp. [6] = test: field tests on affected asparagus, Fusarium spp. in roots; type: in vivo; details: 60 days after application, compared to untreated control
Protocol: as §1, §2, §3, §4

post-harvest rot = post-harvest rot of oranges originating directly from the field (not inoculated); type: in vivo
Protocol: Once the oranges had been artificially contaminated, the treatments were conducted by immersing the oranges in solutions of PTS and PTSO prepared at doses of 1600 and 2500 ppm, and were stored at 20° C.
The assessment of the effectiveness of PTS and PTSO comprised counting of the number of fruits affected by rot in the inoculated zone, to determine the percentage of fruit affected for each treatment and fungus inoculated, and expressing this effectiveness as a percentage of reduction of the affected fruit.
On the basis of the results obtained by the application of PTS and PTSO to oranges of the Navelina variety originating directly from the field, both products, applied in the specified doses, are effective in the control of post-harvest rot. Both PTS and PTSO in turn reduce by 50% the quantity of fruit affected at the end of the refrigeration period (28 days at a temperature of 5° C.) compared to the untreated fruit, as a result of which they are an effective alternative to the synthetic treatments conventionally used.

[7] = system: mixture of fungi (P. expansum, P. italicum, P. digitatum and A. alternata); test: disinfection of rooms by means of fogging
fungal population = test: disinfection by drencher of naturally contaminated containers of a citrus fruit processing plant; details: PTSO 2000 ppm
[8] = system: the most characteristic diseases that affect these crops; test: in vivo tests against pre-harvest diseases in various crops (Table 7); details: pre-harvest diseases and pathogens listed in Table 7
Protocol: B. Likewise, numerous tests were conducted “in vivo” to determine the effectiveness of the products for pre- and post-harvest treatments, and also as disinfectant agents for agricultural soils and facilities in the food processing industries.
In post-harvest treatments, tests were conducted in strawberries, citrus fruits, stone fruits and tropical fruits. Tests were also conducted on vegetable plants in a greenhouse (tomatoes, melons, zucchini, peppers, cucumbers and green beans).

[9] = system: plants inoculated with mycorrhizal fungi; details: in vivo

CCCSS(=O)(=O)CCC [PTSO, Propyl Propyl Thiosulfonate]
diameter of the microbial inhibition halo ([1]; 60 ppm): 27 mm | diameter of the microbial inhibition halo ([1]; 125 ppm): 36 mm | diameter of the microbial inhibition halo ([1]; 250 ppm): 42 mm | diameter of the microbial inhibition halo ([1]; 500 ppm): 50 mm | diameter of the microbial inhibition halo ([1]; 1000 ppm): 68 mm | diameter of the microbial inhibition halo ([2]; 60 ppm): 26 mm | diameter of the microbial inhibition halo ([2]; 125 ppm): 33 mm | diameter of the microbial inhibition halo ([2]; 250 ppm): 45 mm | diameter of the microbial inhibition halo ([2]; 500 ppm): 45 mm | diameter of the microbial inhibition halo ([2]; 1000 ppm): 45 mm | diameter of the microbial inhibition halo ([3]; 60 ppm): 13 mm | diameter of the microbial inhibition halo ([3]; 125 ppm): 20 mm | diameter of the microbial inhibition halo ([3]; 250 ppm): 35 mm | diameter of the microbial inhibition halo ([3]; 500 ppm): 43 mm | diameter of the microbial inhibition halo ([3]; 1000 ppm): 52 mm | diameter of the microbial inhibition halo ([4]; 60 ppm): 16 mm | diameter of the microbial inhibition halo ([4]; 125 ppm): 17 mm | diameter of the microbial inhibition halo ([4]; 250 ppm): 25 mm | diameter of the microbial inhibition halo ([4]; 500 ppm): 25 mm | diameter of the microbial inhibition halo ([4]; 1000 ppm): 27 mm | control of powdery mildew, as % of the effectiveness of the reference product (Leveillula taurica): slightly lower | % Reduction (Fusarium spp. [5]; 250 ppm): 15% | % elimination (Fusarium spp. [5]; 250 ppm): 85% | % Reduction (Fusarium spp. [5]; 500 ppm): 25% | % elimination (Fusarium spp. [5]; 500 ppm): 75% | % Reduction (Fusarium spp. [5]; 1000 ppm): 0% | % elimination (Fusarium spp. [5]; 1000 ppm): 100% | effectiveness of the application (in words) (Fusarium spp. [5]; Fusarium spp. in asparagus, disinfection of agricultural soil): highly effective | % Reduction (Fusarium spp. [6]; 250 ppm): 25% | % elimination (Fusarium spp. [6]; 250 ppm): 33% | % Reduction (Fusarium spp. [6]; 500 ppm): 14% | % elimination (Fusarium spp. [6]; 500 ppm): 86% | % Reduction (Fusarium spp. [6]; 1000 ppm): 43% | % elimination (Fusarium spp. [6]; 1000 ppm): 57% | % of fruit affected (post-harvest rot; 2500 ppm, oranges refrigerated for 28 days at 5° C., 200 fruits not inoculated): 15% | reduction of the quantity of fruit affected compared to the untreated fruit (post-harvest rot; specified doses, end of the refrigeration period (28 days at 5° C.)): 50% | Reduction in the population of the mixture of fungi expressed in % ([7]; 2000 ppm, Environment): 100% | Reduction in the population of the mixture of fungi expressed in % ([7]; 2000 ppm, Walls): 95% | Reduction in the population of the mixture of fungi expressed in % ([7]; 5000 ppm, Environment): 100% | Reduction in the population of the mixture of fungi expressed in % ([7]; 5000 ppm, Walls): 100% | Reduction of the fungal population (%) (fungal population; Bottom of the pallet, Beginning of bath): 93% | Reduction of the fungal population (%) (fungal population; Bottom of the pallet, End of bath): 96% | Reduction of the fungal population (%) (fungal population; Side of the pallet, Beginning of bath): 100% | Reduction of the fungal population (%) (fungal population; Side of the pallet, End of bath): 87% | control capability against the most characteristic diseases of the crops (in words) [8]: high control capability | phytotoxicity to the plant [9]: did not suffer phytotoxicity
